In one data set the test system is HepG2 cells. Description: Cytotoxicity using MTT assay, HepG2. The format is cell-based. The following applies: read-out: IC50 cytotoxicity against HepG2. As to the method:
(§1) Breast cancer (MCF-7) and liver cancer (HepG2) cell lines were collected from National Cancer Institute in Cairo and grown in “RPMI-1640 medium L-Glutamine. The cells were grown in 10% fetal bovine serum (FBS) and 1% penicillin-streptomycin using standard tissue culture protocol. On the second day, cells were grown in triplicate on a 96-well plate at a density of 5 × 10^4 cells and incubated with the investigated compounds at “0.01, 0.1, 1, 10, and 100 µM”. Cell viabilioty was measured with MTT solution. The absorbance was measured using an ELISA microplate reader. After comparing the treated groups to the control, the IC50 values were recorded to indicate the level of viability following previous work.
On the technique in general: Formazan colour is commonly taken as a measure of viable cells.

Another data set addresses VEGFR2 (KDR) (Homo sapiens, UniProt P35968). Description: biochemical.
The subject of a further data set is MCF-7 cells. Nature of the data set: Cytotoxicity using MTT assay, MCF-7. The format is cell-based. As to conditions: for IC50: Homo sapiens, MCF7, 48 h, 48 h, read-out: IC50 cytotoxicity against MCF-7; for cell death: MCF-7 cells. On the procedure: as §1
The target in another data set is Topoisomerase II (Homo sapiens, UniProt P11388). Description: Topoisomerase II screening kit.
Topoisomerase II, sequence (P11388 whole entry): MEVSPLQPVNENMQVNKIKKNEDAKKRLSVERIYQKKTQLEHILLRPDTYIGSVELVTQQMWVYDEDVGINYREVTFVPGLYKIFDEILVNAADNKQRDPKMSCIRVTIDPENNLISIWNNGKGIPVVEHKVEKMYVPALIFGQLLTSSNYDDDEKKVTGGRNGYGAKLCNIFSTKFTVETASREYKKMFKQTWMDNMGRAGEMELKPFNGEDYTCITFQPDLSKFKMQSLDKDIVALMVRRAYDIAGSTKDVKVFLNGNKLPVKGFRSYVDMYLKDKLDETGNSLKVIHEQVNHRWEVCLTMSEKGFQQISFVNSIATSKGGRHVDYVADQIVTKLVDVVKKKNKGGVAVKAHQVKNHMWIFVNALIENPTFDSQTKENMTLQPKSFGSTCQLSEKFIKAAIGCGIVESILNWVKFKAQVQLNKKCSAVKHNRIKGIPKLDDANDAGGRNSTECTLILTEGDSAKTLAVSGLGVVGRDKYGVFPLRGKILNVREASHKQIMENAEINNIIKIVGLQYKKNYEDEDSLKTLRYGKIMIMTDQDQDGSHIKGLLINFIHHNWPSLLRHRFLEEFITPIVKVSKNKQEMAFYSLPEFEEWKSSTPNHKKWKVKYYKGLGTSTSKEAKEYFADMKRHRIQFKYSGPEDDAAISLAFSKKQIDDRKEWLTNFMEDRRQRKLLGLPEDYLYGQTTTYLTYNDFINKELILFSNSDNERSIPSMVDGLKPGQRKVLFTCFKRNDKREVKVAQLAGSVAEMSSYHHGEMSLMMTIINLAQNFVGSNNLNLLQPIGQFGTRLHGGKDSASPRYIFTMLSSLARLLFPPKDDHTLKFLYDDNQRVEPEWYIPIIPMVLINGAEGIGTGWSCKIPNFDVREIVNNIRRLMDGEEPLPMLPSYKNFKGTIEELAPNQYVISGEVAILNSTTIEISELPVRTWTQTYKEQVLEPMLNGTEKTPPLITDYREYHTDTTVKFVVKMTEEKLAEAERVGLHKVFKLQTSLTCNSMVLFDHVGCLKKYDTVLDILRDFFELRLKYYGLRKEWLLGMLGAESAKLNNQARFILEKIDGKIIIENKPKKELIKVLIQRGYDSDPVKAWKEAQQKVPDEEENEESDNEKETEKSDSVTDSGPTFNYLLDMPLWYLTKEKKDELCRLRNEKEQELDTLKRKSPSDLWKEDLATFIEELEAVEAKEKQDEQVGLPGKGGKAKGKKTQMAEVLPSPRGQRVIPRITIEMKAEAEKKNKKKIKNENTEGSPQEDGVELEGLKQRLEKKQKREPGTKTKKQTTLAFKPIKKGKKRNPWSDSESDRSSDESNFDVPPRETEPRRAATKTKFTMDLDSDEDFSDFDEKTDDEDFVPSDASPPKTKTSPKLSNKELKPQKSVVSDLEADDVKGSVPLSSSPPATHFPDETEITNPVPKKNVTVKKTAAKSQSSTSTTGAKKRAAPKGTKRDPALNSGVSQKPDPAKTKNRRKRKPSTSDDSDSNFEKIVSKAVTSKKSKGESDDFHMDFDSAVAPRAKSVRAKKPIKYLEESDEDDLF

Where a name gives a salt, the structure may show the parent alone. Read-outs that look alike come from different tables or passages of the source.

VEGFR2 (KDR), sequence (P35968 20-1356): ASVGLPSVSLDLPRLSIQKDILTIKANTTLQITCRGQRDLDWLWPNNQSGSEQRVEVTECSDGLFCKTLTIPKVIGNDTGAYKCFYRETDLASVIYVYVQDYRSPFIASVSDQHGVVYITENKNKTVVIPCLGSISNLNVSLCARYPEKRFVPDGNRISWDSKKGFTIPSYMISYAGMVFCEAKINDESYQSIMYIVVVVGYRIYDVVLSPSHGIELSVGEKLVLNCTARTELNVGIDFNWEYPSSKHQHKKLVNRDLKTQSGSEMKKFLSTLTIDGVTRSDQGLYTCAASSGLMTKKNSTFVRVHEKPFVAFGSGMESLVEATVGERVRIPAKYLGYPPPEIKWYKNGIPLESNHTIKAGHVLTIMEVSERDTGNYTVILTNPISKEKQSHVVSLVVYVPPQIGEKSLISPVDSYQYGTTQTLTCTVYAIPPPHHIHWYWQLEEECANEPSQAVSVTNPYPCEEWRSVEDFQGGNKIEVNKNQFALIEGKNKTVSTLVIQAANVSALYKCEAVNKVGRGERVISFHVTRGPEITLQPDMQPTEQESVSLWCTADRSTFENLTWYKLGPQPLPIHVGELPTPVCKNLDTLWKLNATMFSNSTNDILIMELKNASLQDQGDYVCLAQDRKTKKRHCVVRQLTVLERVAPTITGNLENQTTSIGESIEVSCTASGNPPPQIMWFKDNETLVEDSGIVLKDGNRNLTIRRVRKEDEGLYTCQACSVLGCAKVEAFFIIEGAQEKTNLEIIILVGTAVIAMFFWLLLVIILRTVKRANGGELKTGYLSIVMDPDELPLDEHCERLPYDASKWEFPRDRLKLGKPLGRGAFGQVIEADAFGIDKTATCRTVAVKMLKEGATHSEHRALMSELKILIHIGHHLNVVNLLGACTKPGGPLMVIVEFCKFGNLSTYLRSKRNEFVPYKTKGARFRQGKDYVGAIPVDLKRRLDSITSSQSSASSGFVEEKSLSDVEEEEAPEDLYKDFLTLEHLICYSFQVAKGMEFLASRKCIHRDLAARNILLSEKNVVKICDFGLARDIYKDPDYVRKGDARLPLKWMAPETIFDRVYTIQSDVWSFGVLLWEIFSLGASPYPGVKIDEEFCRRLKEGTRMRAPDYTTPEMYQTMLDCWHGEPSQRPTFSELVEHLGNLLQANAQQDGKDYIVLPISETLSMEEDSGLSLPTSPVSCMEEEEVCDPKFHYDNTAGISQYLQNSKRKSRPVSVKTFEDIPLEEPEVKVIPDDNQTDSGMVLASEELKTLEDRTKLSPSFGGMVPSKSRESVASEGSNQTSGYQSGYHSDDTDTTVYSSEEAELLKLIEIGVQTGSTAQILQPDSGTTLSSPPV

`COC(=O)CNC(=O)c1cc2ccccc2oc1=O` (as salt: hydrochloride) [4a, Methyl [(2-oxo-2H-chromene-3-carbonyl)-amino] ethanoate] returned a melting point of 173 to 175 °C.
`COC(=O)C[C@H](NC(=O)c1cc2ccccc2oc1=O)C(=O)OC` (as salt: succinate) [4g, Dimethyl 2-[(2-oxo-2H-chromene-3-carbonyl)-amino] succinate] displayed a melting point of 69 to 71 °C.
Compound `COC(=O)[C@H](C)NC(=O)c1cc2ccccc2oc1=O` [4b, Methyl 2-[(2-oxo-2H-chromene-3-carbonyl)-amino] propanoate] had a melting point of 104 to 106 °C.
In the case of `COC(=O)CCNC(=O)c1cc2ccccc2oc1=O` [4c, Methyl 3-[(2-oxo-2H-chromene-3-carbonyl)-amino] propanoate], the melting point lay within 135 to 137 °C.
Compound `COC(=O)C(CO)NC(=O)c1cc2ccccc2oc1=O` (stereo not shown) [4d, Methyl 3-hydroxy-2-[(2-oxo-2H-chromene-3-carbonyl)-amino]-propanoate] displayed a melting point of 177 to 179 °C.
`COC(=O)C(NC(=O)c1cc2ccccc2oc1=O)C(C)C` (stereo not shown) [4e, Methyl 3-methyl-2-[(2-oxo-2H-chromene-3-carbonyl)-amino] butanoate] yielded a melting point of 75 to 77 °C.
`COC(=O)[C@H](CC(C)C)NC(=O)c1cc2ccccc2oc1=O` [4f, Methyl 4-methyl-2-[(2-oxo-2H-chromene-3-carbonyl)-amino] pentan-oate] registered a melting point of 95 to 97 °C.
As to `COC(=O)CC[C@H](NC(=O)c1cc2ccccc2oc1=O)C(=O)OC` [4h, Dimethyl 2-[(2-oxo-2H-chromene-3-carbonyl)-amino] pentanedioate], the melting point fell in the range of 64 to 66 °C.
Take `COC(=O)[C@H](CCSC)NC(=O)c1cc2ccccc2oc1=O` [4i, Methyl 4-methylsulfanyl-2-[(2-oxo-2H-chromene-3-carbonyl)-amino] butanoate]: the melting point is 81 to 83 °C.
In turn, `COC(=O)C(NC(=O)c1cc2ccccc2oc1=O)c1ccccc1` (stereo not shown) [4j, Methyl [(2-oxo-2H-chromene-3-carbonyl)-amino]-phenylacetate] showed a melting point of 189 to 192 °C.
Take `COC(=O)C(Cc1ccc(O)cc1)NC(=O)c1cc2ccccc2oc1=O` (stereo not shown) [4k, Methyl 3-(4-hydroxyphenyl)-2-[(2-oxo-2H-chromene-3-carbonyl)-amino]-propanoate]: the IC50 in the data set with HepG2 cells (48 h) came to 9.44 µM; in the data set on HepG2 cells (Homo sapiens, HepG2, 48 h), 9.4 µM; against VEGFR2 (KDR), 23.6 ± 1.19 µM; with MCF-7 cells, 4.98 µM; against Topoisomerase II it was 4.1 ± 0.64 µM. Besides, the cell death in the data set with MCF-7 cells came to 97.82%.
In the case of `COC(=O)C(Cc1c[nH]c2ccccc12)NC(=O)c1cc2ccccc2oc1=O` (stereo not shown) [4l, Methyl 3-(1H-Indol-3-yl)-2-[(2-oxo-2H-chromene-3-carbonyl)-amino]-propanoate], the melting point is 138 to 139 °C.
The same measure, in the same setting: under `O=C(O)CCNC(=O)c1cc2ccccc2oc1=O` [5c, 3-[(2-Oxo-2H-chromene-3-carbonyl)-amino]-propanoic acid] stands 195 to 197 °C; under `CC(C)C(NC(=O)c1cc2ccccc2oc1=O)C(=O)O` (stereo not shown) [5e, 3-Methyl-2-[(2-oxo-2H-chromene-3-carbonyl)-amino] butanoic acid], 210 to 212 °C.
`CSCCC(NC(=O)c1cc2ccccc2oc1=O)C(=O)O` (stereo not shown) [5i, 4-Methylsulfanyl-2-[(2-oxo-2H-chromene-3-carbonyl)-amino]-butanoic acid]: the melting point was in the range of 108 to 109 °C.
`COC(=O)CCNC(=O)CCNC(=O)c1cc2ccccc2oc1=O` [6a, Methyl 3-{3-[(2-oxo-2H-chromene-3-carbonyl)-amino]-propionylamino} propanoate]: the melting point is 127 to 128 °C.
`COC(=O)C(NC(=O)CCNC(=O)c1cc2ccccc2oc1=O)C(C)C` (stereo not shown) [6b, Methyl 3-Methyl-2-{3-[(2-oxo-2H-chromene-3-carbonyl)-amino]-propionyl-amino}-butanoate] returned a melting point of 101 to 103 °C.
Take `COC(=O)C(CCSC)NC(=O)CCNC(=O)c1cc2ccccc2oc1=O` (stereo not shown) [6c, Methyl 4-methylsulfanyl-2-{3-[(2-oxo-2H-chromene-3-carbonyl)-amino]-propionylamino}-butanoate]: the IC50 in the data set with HepG2 cells (48 h) is 33.8 µM; in the data set on HepG2 cells (Homo sapiens, HepG2, 48 h) it was 33.9 µM; at VEGFR2 (KDR) it was 34.2 ± 1.06 µM; with MCF-7 cells it was 5.85 µM; against Topoisomerase II, 8.6 ± 0.15 µM. In addition, in the data set on MCF-7 cells, the cell death was found to be 97.35%.
The compound `COC(=O)CCNC(=O)C(NC(=O)c1cc2ccccc2oc1=O)C(C)C` (stereo not shown) [7a, Methyl 3-{3-methyl-2-[(2-oxo-2H-chromene-3-carbonyl)-amino]-butyryl-amino}-propanoate] gave a melting point of 149 to 151 °C.
As to `COC(=O)C(NC(=O)C(NC(=O)c1cc2ccccc2oc1=O)C(C)C)C(C)C` (stereo not shown) [7b, Methyl 3-Methyl-2-{3-methyl-2-[(2-oxo-2H-chromene-3-carbonyl)-amino]-butyrylamino}-butanoate], the melting point lay within 97 to 99 °C.
For the compound `COC(=O)[C@H](CCSC)NC(=O)[C@@H](NC(=O)c1cc2ccccc2oc1=O)C(C)C` [7c, Methyl 2-{3-methyl-2-[(2-oxo-2H-chromene-3-carbonyl)-amino]-butyrylamino} -4-methylsulfanyl butanoate], the melting point lay within 100 to 101 °C.
As for `COC(=O)CCNC(=O)C(CCSC)NC(=O)c1cc2ccccc2oc1=O` (stereo not shown) [8a, Methyl 3-{4-methylsulfanyl-2-[(2-oxo-2H-chromene-3-carbonyl)-amino]-butyrylamino}-propanoate], the melting point fell in the range of 104 to 105 °C.
Compound `COC(=O)C(NC(=O)C(CCSC)NC(=O)c1cc2ccccc2oc1=O)C(C)C` (stereo not shown) [8b, Methyl 3-methyl-2-{4-methylsulfanyl-2-[(2-oxo-2H-chromene-3-carbonyl)-amino]-butyrylamino}-butanoate] showed a melting point of 98 to 99 °C.
The compound `COC(=O)C(CCSC)NC(=O)C(CCSC)NC(=O)c1cc2ccccc2oc1=O` (stereo not shown) [8c, Methyl 4-methylsulfanyl-2-{4-methylsulfanyl-2-[(2-oxo-2H-chromene-3-carbonyl)-amino]-butyrylamino}-butanoate] yielded a melting point of 109 to 111 °C.

A word on the melting point: it is the temperature of the solid-liquid transition. By IC50 is commonly meant the point on the concentration scale where inhibition reaches its midpoint.

For the origin of these results see publication PMC9737644, “Facile Synthesis of Some Coumarin Derivatives and Their Cytotoxicity through VEGFR2 and Topoisomerase II Inhibition” (Molecules, 2022).
